In patent US7758903B2, “Cytokine modulators and related methods of use” (Access Business Group International LLC, priority 2003, dated 2010):
Converted amounts (≈) assume the structure as drawn. Like-named read-outs stand apart in the source and are kept apart here.

How the values were obtained:
[1] = system: IL-1 secretion, THP-1 cells; assay: Synergy or interference of other ingredients with optional primary ingredients in inhibiting LPS-stimulated IL-1 secretion; assay type: cell-based, human; parameters: key: a “+” indicates interference or synergy, respectively as shown; a “−” indicates no interference or no synergy
Protocol: Specifically, the release of IL-1 from the THP-1 cells after exposure to lipopolysaccharide (LPS) with or without pre-treatment in varying doses of the other ingredients, or a combination of those other ingredients with optional primary ingredients, was measured to evaluate the effects of the other ingredients on monocyte IL-1α secretion.
The other ingredients tested were: blackberry extract, blueberry extract, cranberry extract, rosemary extract, clove extract and resveratrol.
In Table IV, a “−” indicates no interference or no synergy, and a “+” indicates interference or synergy, respectively as shown.

[2] = system: IL-1/IL-6 Stimulated CRP Secretion, hepatocytes; assay: IL-1/IL-6 stimulated CRP secretion by primary hepatocytes, CRP ELISA of supernatant; assay type: cell-based; settings: Homo sapiens, Hepatocyte
Protocol: Hepatocytes' response to IL-1 expression levels was evaluated by measuring CRP in the culture supernatant after exposure of the hepatocytes to IL-1 and IL-6 with or without pre-treatment with varying doses of the other ingredients.
The IL-1 response effects were evaluated in hepatocytes by measuring the secretion of CRP when the hepatocytes were exposed to IL-1α and IL-6 with or without pre-treatment with varying doses of the other ingredients. […] Thus, by measuring CRP secreted by the hepatocytes, the degree of cells' response to IL-1 and/or IL-6 is able to be determined.
To perform the evaluation of this example, human primarily isolated hepatocyte cells, obtained from In vitro Technology of Baltimore, Md., were restored under the conditions recommended by In vitro Technology in a humidified 37° C. incubator, which was supplied with 5% carbon dioxide. To test the CRP response potential of various compounds, multiple groups of hepatocytes were plated in 96 well plates. Specifically, 1×10^4 cells were plated in hepatocyte media supplement with 10% fetal bovine serum which were then exposed with varying doses, specifically, 100 ug/ml, 10 ug/ml, 1 ug/ml and 0 ug/ml of test ingredients. […]

[3] = system: IL-1 secretion, THP-1 cells; assay: LPS-stimulated IL-1 secretion by THP-1 cells, IL-1 ELISA of supernatant; assay type: cell-based, human; settings: IL-1 in supernatant, THP-1 cells pre-treated 4 hours, LPS 100 nanograms/ml 16 hours; for EC50: Homo sapiens, read-out: EC 50 in ug/ml (50% Effective Dose in vitro)
Protocol: For this evaluation, white blood cells were dosed with varying concentrations of the ingredients. An inflammatory stimulus, lipopolysaccharide (LPS), was then added to the ingredient-plus-cell culture, as well as untreated control samples of white blood cells. The production of the IL-1 cytokine of both the ingredient-treated cells and the untreated cells was compared to extrapolate the concentration of the ingredient that causes a 50% change in the concentration of IL-1 produced by the cells.
To perform the evaluation of inhibiting interleukin synthesis of this example, human white blood cells, specifically THP-1 cells obtained from ATCC of Manassas, Va., were grown under conditions recommended by ATCC in a humidified 37° C. incubator, which was supplied with 5% carbon dioxide. To test the IL-1 inhibitory potential of various compounds, multiple groups of THP-1 cells were plated in 96 well plates. […] With these cell samples plated, they were then dosed.
In dosing, each of the ingredients was administered to the plated THP-1 cells in varying doses, specifically, 100 ug/ml, 10 ug/ml, 1 ug/ml and 0 ug/ml. […] The THP-1 cells, now dosed with the desired ingredients, were returned to the incubator and incubated for 4 hours under the same conditions.
Thereafter, a known inflammatory stimulator, lipopolysaccharide (LPS) was added to each well plate to a final concentration of 100 nanograms/ml. The LPS treated cultures were returned to the incubator for an additional 16 hours. […]
Thereafter, the liquids from each of the wells were removed and the coated plate was washed 3 times in a wash buffer. […] The reaction of the substrate solution (TMB) and the horseradish peroxidase conjugated to the anti-IL-1 antibody produces a colored product with specific spectral absorbance at wavelength of 450 nm.
The calibration standard samples were subjected to the same protocol as the supernatant samples to determine the IL-1 present in those calibration samples. […] The optical density of the standard calibration samples were then plotted to determine a standardized IL-1 absorbance calibration curve.

Oc1ccc(C=Cc2cc(O)cc(O)c2)cc1 [Resveratrol]
Interference +/− ([1]; with Artichoke): −
Synergy +/− ([1]; with Artichoke): −
Interference +/− ([1]; with Nettle Root): −
Synergy +/− ([1]; with Nettle Root): −
Interference +/− ([1]; with Olive Extract): −
Synergy +/− ([1]; with Olive Extract): −
Interference +/− ([1]; with Rosehips): −
Synergy +/− ([1]; with Rosehips): −
EC50 ([2]; IL-1/IL-6 stimulated CRP secretion, hepatocytes, Example 2, read-out: CRP EC 50 in ug/ml (50% Effective Dose in vitro)): 1 to 10 µg/mL (≈ 4.38 to 43.8 µM)
EC50 ([2]; hepatocytes activated via IL-1 and IL-6 (1 ng/ml each), read-out: EC50 of CRP secretion inhibition): 1 to 10 µg/mL (≈ 4.38 to 43.8 µM)

COc1cc(/C=C/C(=O)O)ccc1O [Ferulic acid]
EC50 [3]: 10 µg/mL (≈ 51.5 µM)

CC(C)Oc1ccc2c(=O)c(-c3ccccc3)coc2c1 [Ipriflavone, reference compound]
EC50 [3]: < 1 µg/mL

O=C(O[C@@H]1Cc2c(O)cc(O)cc2O[C@@H]1c1cc(O)c(O)c(O)c1)c1cc(O)c(O)c(O)c1 [Epigallocatechin gallate]
EC 50 in ug/ml (50% Effective Dose in vitro) [3]: <1 µg/mL
